What is called pEC50 is the negative decadic logarithm of the EC50, by convention in mol/L. A word on the pIC50: it is the IC50 on a negative log10 scale, so that one unit is a factor of ten.

pEC50, pIC50: −log10 of the molar value. Like-named read-outs stand apart in the source and are kept apart here.

Type in all cases: cell-based, Erwinia chrysanthemii
Assay [1] addresses T1, Q2′N ELIC (Dickeya chrysanthemi, UniProt P0C7B7, Q232N).
T1 construct: expressed in transfected cells; host or cells: Xenopus laevis oocytes (cRNA injection)
The assay is described as follows: GABA activation of Q2′N ELIC, two-electrode voltage clamp in Xenopus oocytes. In general terms: In two-electrode clamp one electrode senses voltage and the other passes current.

Assay [2] has as its target T2, T6′A ELIC (Dickeya chrysanthemi, UniProt P0C7B7, T236A).
T2 construct: expressed in transfected cells; host or cells: Xenopus laevis oocytes (cRNA injection)
The assay is described as follows: GABA activation of T6′A ELIC, two-electrode voltage clamp in Xenopus oocytes.

Assay [3] addresses T3, T6′S ELIC (Dickeya chrysanthemi, UniProt P0C7B7, T236S).
T3 construct: expressed in transfected cells; host or cells: Xenopus laevis oocytes (cRNA injection)
Briefly: GABA activation of T6′S ELIC, two-electrode voltage clamp in Xenopus oocytes.

Assay [4] deals with T4, F16′A ELIC (Dickeya chrysanthemi, UniProt P0C7B7, F246A).
T4 construct: expressed in transfected cells; host or cells: Xenopus laevis oocytes (cRNA injection)
The assay is described as follows: GABA activation of F16′A ELIC, two-electrode voltage clamp in Xenopus oocytes. As to the method:
(§1) Xenopus laevis oocyte-positive females were purchased from NASCO (Fort Atkinson, WI) and maintained according to standard methods. Harvested stage V and VI Xenopus oocytes were washed in four changes of Ca^2+-free ND96 [96 mM NaCl, 2 mM KCl, 1 mM MgCl2, and 5 mM HEPES (pH 7.5)], defolliculated in 1.5 mg mL^–1 collagenase type 1A for approximately 2 h, washed again in four changes of ND96, and stored in ND96 at 16 °C containing 2.5 mM sodium pyruvate, […] gentamycin, and 0.7 mM theophylline.
(§2) ELIC (GenBank accession number ADN00343.1) was kindly provided by C. Ulens. For expression in Xenopus oocytes, it was cloned into pGEMHE with the signal sequence of the human α7 nACh receptor. […] Stage V and VI oocytes were injected with 20 ng of cRNA, and currents were recorded 1–3 days postinjection.
(§3) Using two-electrode voltage clamp, Xenopus oocytes were clamped at −60 mV using an OC-725 amplifier (Warner Instruments, Hamden, CT), Digidata 1322A, and the Strathclyde Electrophysiology Software Package (Department of Physiology and Pharmacology, University of Strathclyde, Glasgow, U.K.). Currents were recorded at 5 kHz and filtered at a frequency of 1 kHz. […] Inhibition by test compounds was measured at the GABA EC50 for each mutant. […]

In assay [5] the target is T5, F16′D ELIC (Dickeya chrysanthemi, UniProt P0C7B7, F246D).
T5 construct: expressed in transfected cells; host or cells: Xenopus laevis oocytes (cRNA injection)
Briefly: GABA activation of F16′D ELIC, two-electrode voltage clamp in Xenopus oocytes.

Assay [6] deals with T6, F16′E ELIC (Dickeya chrysanthemi, UniProt P0C7B7, F246E).
T6 construct: expressed in transfected cells; host or cells: Xenopus laevis oocytes (cRNA injection)
Briefly: GABA activation of F16′E ELIC, two-electrode voltage clamp in Xenopus oocytes. As to the method: as §1, §2, §3

For assay [7], the target named is T7, F16′Q ELIC (Dickeya chrysanthemi, UniProt P0C7B7, F246Q).
T7 construct: expressed in transfected cells; host or cells: Xenopus laevis oocytes (cRNA injection)
Briefly: GABA activation of F16′Q ELIC, two-electrode voltage clamp in Xenopus oocytes.

The target in assay [8] is T8, F16′L ELIC (Dickeya chrysanthemi, UniProt P0C7B7, F246L).
T8 construct: expressed in transfected cells; host or cells: Xenopus laevis oocytes (cRNA injection)
The assay is described as follows: GABA activation of F16′L ELIC, two-electrode voltage clamp in Xenopus oocytes. As to the method: as §1, §2, §3

The target of assay [9] is T9, F16′S ELIC (Dickeya chrysanthemi, UniProt P0C7B7, F246S).
T9 construct: expressed in transfected cells; host or cells: Xenopus laevis oocytes (cRNA injection)
The assay is described as follows: GABA activation of F16′S ELIC, two-electrode voltage clamp in Xenopus oocytes.

Assay [10] has as its target T10, F16′T ELIC (Dickeya chrysanthemi, UniProt P0C7B7, F246T).
T10 construct: expressed in transfected cells; host or cells: Xenopus laevis oocytes (cRNA injection)
Briefly: GABA activation of F16′T ELIC, two-electrode voltage clamp in Xenopus oocytes.

For assay [11], the target named is T11, F16′W ELIC (Dickeya chrysanthemi, UniProt P0C7B7, F246W).
T11 construct: expressed in transfected cells; host or cells: Xenopus laevis oocytes (cRNA injection)
The assay is described as follows: GABA activation of F16′W ELIC, two-electrode voltage clamp in Xenopus oocytes.

For assay [12], the target named is T12, F16′Y ELIC (Dickeya chrysanthemi, UniProt P0C7B7, F246Y).
T12 construct: expressed in transfected cells; host or cells: Xenopus laevis oocytes (cRNA injection)
The assay is described as follows: GABA activation of F16′Y ELIC, two-electrode voltage clamp in Xenopus oocytes.

Assay [13] concerns the target T13, F16′S/T6′S ELIC (Dickeya chrysanthemi, UniProt P0C7B7, F246S/T236S).
T13 construct: expressed in transfected cells; host or cells: Xenopus laevis oocytes (cRNA injection)
Briefly: GABA activation of F16′S/T6′S ELIC, two-electrode voltage clamp in Xenopus oocytes.

In assay [14] the target is T3, T6′S ELIC. Briefly: Inhibition of GABA-elicited currents of T6′S ELIC in Xenopus oocytes.
Assay [15] concerns the target T9, F16′S ELIC. The assay is described as follows: Inhibition of GABA-elicited currents of F16′S ELIC in Xenopus oocytes.
Assay [16] addresses T14, T6′S/F16′S ELIC (Dickeya chrysanthemi, UniProt P0C7B7, F246S/T236S).
T14 construct: expressed in transfected cells; host or cells: Xenopus laevis oocytes injected with cRNA transcribed from pGEMHE
T14 sequence (P0C7B7 1-321 T236S/F246S): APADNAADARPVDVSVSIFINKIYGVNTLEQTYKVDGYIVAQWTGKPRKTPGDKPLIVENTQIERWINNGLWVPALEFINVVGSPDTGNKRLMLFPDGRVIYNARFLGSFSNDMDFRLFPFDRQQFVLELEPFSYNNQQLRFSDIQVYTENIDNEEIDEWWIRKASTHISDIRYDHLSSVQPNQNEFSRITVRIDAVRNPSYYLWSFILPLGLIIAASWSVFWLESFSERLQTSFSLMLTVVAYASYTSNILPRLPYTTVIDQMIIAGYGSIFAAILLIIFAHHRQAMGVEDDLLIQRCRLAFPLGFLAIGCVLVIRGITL
The assay is described as follows: Inhibition of GABA-elicited currents of T6′S/F16′S ELIC in Xenopus oocytes. Conditions: inhibition measured at the GABA EC50.

For assay [17], the target named is T1, Q2′N ELIC. The assay is described as follows: Inhibition of GABA-elicited currents of Q2′N ELIC in Xenopus oocytes.
Assay [18] addresses T2, T6′A ELIC. The assay is described as follows: Inhibition of GABA-elicited currents of T6′A ELIC in Xenopus oocytes. As to the method: as §1, §2, §3
The target in assay [19] is T4, F16′A ELIC. Briefly: Inhibition of GABA-elicited currents of F16′A ELIC in Xenopus oocytes. The settings on record: inhibition measured at the GABA EC50.
Assay [20] concerns the target T5, F16′D ELIC. Briefly: Inhibition of GABA-elicited currents of F16′D ELIC in Xenopus oocytes. As to the method:
as §1, §2, §3

The target of assay [21] is T11, F16′W ELIC. The assay is described as follows: Inhibition of GABA-elicited currents of F16′W ELIC in Xenopus oocytes.
Assay [22] concerns the target T10, F16′T ELIC. The assay is described as follows: Inhibition of GABA-elicited currents of F16′T ELIC in Xenopus oocytes.
Assay [23] addresses T6, F16′E ELIC. Briefly: Inhibition of GABA-elicited currents of F16′E ELIC in Xenopus oocytes.

With `NCCCC(=O)O` [GABA, γ-aminobutyric acid], the pEC50 in assay [1] is 2.74; in [2] (GABA EC50, T6′A ELIC), 3.10; in assay [2] (GABA pEC50, T6′A ELIC) it was 3.07; in assay [3], 2.75; in [4], 2.31; in [5], 2.68. For the same molecule, the pEC50 in assay [6] (GABA EC50, F16′E ELIC) is 1.59; in assay [6] (GABA pEC50, F16′E ELIC), 1.59; in assay [7], 2.11; in assay [8] (GABA EC50, F16′L ELIC), 1.29; in assay [8] (GABA pEC50, F16′L ELIC), 1.29; in assay [9], 2.15. Besides, the pEC50 in [10] (GABA EC50, F16′T ELIC) was 1.96; in [10] (GABA pEC50, F16′T ELIC), 1.94; in assay [11], 2.64; in assay [12], 2.12; in assay [13] it was 2.19.
In the case of `CCCC(C(=O)OCCN(CC)CC)(c1ccccc1)c1ccccc1` [proadifen], the IC50 in [14] (T6′S ELIC, inhibition measured at the GABA EC50, read-out: pIC50 (converted)) was 2.57 µM; in assay [16] (T6′S/F16′S ELIC, read-out: pIC50 (converted)), 933 nM. For the same molecule, the pIC50 in assay [15] (F16′S ELIC, inhibition measured at the GABA EC50, read-out: IC50) is 5.29; in [16] (T6′S/F16′S ELIC, read-out: IC50), 6.05.
On to `C=C(C)[C@@H]1[C@H]2OC(=O)[C@@H]1[C@]1(O)C[C@H]3O[C@]34C(=O)O[C@H]2[C@]14C` [PXN, Picrotoxinin], for which the pIC50 in [17] is 4.36; in assay [18], 4.02; in [14], 4.17; in assay [19] (IC50, F16′A ELIC), 4.80; in [19] (pIC50, F16′A ELIC) it was 4.78; in assay [20] it was 5.03. Moreover, the pIC50 in assay [21] is 4.28; in assay [15], 5.35; in assay [22], 5.14; in [23], 4.57; in [16] (IC50, T6′S/F16′S ELIC) it was 4.36.

(Values after publication PMC4312132, “Phenylalanine in the Pore of the Erwinia Ligand-Gated Ion Channel Modulates Picrotoxinin Potency but Not Receptor Function” (Biochemistry, 2014).)
